Measured values reported in patent publication US7841299B2, “Method and apparatus for applying hoof care, sanitizing, or treatment solutions to the feet or hooves of animals” (Jot Holdings, LLC, priority 2007, dated 2010).

Test system: active lesions (interdigital dermatitis or hairy warts)

For `O=S(=O)([O-])[O-].[Cu+2]` [copper sulfate], the “lesions per week, average” value (50 gallons water + 25 lbs copper sulfate per 400 cows, once per day, 4 days per week, 1,600 cow dairy) was 22 lesions per week, the “lesions per week, high” value (same regimen, 8 week record) was 36 and the “lesions per week, low” value (same regimen, 8 week record) was 13.
